Data reported in patent US7064206B1 (University of Kentucky Research Foundation, priority 2003, dated 2006).

Columns and labels:
[1] = Non-enzymatic decomposition of the glycinate ester prodrug at physiological pH; type: physicochemical; details: pH of 7 or above
Excerpt: 4 arose by a competitive intermolecular reaction to the lactam intermediate and reacted to release both 5 and 6.

[2] = target: human serum albumin (HSA) (Homo sapiens, UniProt P02768); details: cited from earlier work
[3] = human blood, cited from earlier work
[4] = target: T1, topoisomerase I cleavage complexes (Homo sapiens, UniProt P11387); details: cell-free; vs camptothecin or SN-38; cited from earlier work
T1 sequence (P11387 1-765): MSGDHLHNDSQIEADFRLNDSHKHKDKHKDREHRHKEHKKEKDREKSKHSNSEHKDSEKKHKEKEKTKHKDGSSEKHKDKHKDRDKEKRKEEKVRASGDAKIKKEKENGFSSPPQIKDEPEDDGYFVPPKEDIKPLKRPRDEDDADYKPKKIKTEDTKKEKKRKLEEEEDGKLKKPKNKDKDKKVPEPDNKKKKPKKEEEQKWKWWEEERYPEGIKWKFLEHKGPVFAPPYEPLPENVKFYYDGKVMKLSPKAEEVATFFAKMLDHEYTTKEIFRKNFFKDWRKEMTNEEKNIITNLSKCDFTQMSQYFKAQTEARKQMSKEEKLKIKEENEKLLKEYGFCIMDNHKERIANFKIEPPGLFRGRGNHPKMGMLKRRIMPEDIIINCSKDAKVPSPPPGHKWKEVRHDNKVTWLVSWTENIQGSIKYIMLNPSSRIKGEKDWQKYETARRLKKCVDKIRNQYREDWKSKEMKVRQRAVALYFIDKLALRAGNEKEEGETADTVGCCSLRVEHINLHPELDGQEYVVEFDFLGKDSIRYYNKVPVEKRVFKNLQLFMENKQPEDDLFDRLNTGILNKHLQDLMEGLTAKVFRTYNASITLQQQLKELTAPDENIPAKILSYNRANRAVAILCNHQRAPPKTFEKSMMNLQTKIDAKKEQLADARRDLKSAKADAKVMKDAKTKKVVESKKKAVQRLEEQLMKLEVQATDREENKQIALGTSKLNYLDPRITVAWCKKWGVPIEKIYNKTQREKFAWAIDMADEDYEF

human glioma = details: murine model; cited from earlier work
[5] = Stability of free and liposomal prodrug in whole blood

Chain of human serum albumin (HSA) (P02768 25-609): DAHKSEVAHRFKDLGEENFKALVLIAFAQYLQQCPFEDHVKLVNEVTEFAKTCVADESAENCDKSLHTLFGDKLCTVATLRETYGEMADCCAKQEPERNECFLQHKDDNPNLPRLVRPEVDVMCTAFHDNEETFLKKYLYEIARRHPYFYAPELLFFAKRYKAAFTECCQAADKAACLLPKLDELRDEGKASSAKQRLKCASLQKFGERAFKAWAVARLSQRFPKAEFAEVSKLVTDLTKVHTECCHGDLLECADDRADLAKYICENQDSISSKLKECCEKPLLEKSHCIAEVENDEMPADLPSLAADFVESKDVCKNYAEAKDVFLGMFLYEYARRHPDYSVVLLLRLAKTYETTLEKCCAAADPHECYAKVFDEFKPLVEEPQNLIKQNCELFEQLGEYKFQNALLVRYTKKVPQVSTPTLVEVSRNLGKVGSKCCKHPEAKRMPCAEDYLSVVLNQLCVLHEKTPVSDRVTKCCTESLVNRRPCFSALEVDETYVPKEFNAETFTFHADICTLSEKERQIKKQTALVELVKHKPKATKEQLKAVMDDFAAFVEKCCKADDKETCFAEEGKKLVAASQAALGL

For `CC[C@@]1(OC(=O)CN)C(=O)OCc2c1cc1n(c2=O)Cc2c-1nc1ccc(O)cc1c2[Si](C)(C)C(C)(C)C` [DB-67 20(S)-glycinate ester], the “decomposition at physiological pH” value [1] was “rapid and convenient non-enzymatic decomposition process that releases active DB-67”.
In the case of `CC[C@@]1(O)C(=O)OCc2c1cc1n(c2=O)Cc2c-1nc1ccc(O)cc1c2[Si](C)(C)C(C)(C)C` [DB-67, 7-t-butyldimethylsilyl-10-hydroxycamptothecin], the “association of carboxylate form with the high affinity carboxylate binding pocket on HSA” value [2] is listed as “blocks the associations”, the “% lactone at equilibrium” value [3] is listed as 30% and the t1/2 ([3]; lactone hydrolysis) is listed as 2.17 h. For the same compound, the “stability of topoisomerase I cleavage complexes” value [4] was “more stable topoisomerase I cleavage complexes than camptothecin or SN-38” and the “activity against human glioma” value (human glioma) was “display activity against human glioma”.
In the case of `CCc1c2c(nc3ccc(O)cc13)-c1cc3c(c(=O)n1C2)COC(=O)[C@]3(O)CC` [SN-38], the “association of carboxylate form with the high affinity carboxylate binding pocket on HSA” value [2] is listed as “block SN-38 from associating”.
For Camptothecin, the “affinity of lactone form for HSA” value ([2]; lactone form) is listed as “moderate affinity”.
With DB-67 4-aminobutanoate ester the “decomposition of free prodrug” value [5] was “extensive”.
